Results published in patent US20040006061A1, “Alkoxybenzylamine” (priority 2001, published 2004).
Where two headings read alike, the source gives them in different places.

How the values were obtained:
[1] = tested on: Staphylococcus hominis DSM 20328; assay: Determination of the Minimum Inhibitory Concentration (MIC value) in microtitre plates, Staphylococcus hominis; type: cell-based; conditions: for MIC: Staphylococcus hominis, DSM20328, 48 h, read-out: MIC [μg/ml] SH
Procedure: (§1) Determination of the Minimum Inhibitory Concentration (MIC Value) in Microtitre Plates
Casein-soybean flour-peptone broth for preparation of pre-cultures of test bacteria and yeast.
Staphylococcus hominis DSM 20328 […]
(§2) The test substances are pre-dissolved in dimethyl sulfoxide (DMSO) and tested in a dilution series of 1:2.
(§3) The bacteria are cultured overnight in CASO broth and washed off using 10 ml of 0.85% sodium chloride solution (+0.1% Triton X-100).
(§4) All the test organisms are adjusted to an organism count of 1-5×10^6 CFU/ml using 0.85% sodium chloride solution.
(§5) The test substances are pre-pipetted into microtitre plates in amounts of 8 μl per well.
(§6) Pre-diluted test organism suspensions are diluted 1:100 in CASO broth.
(§7) The test batches are incubated for 48 hours at 37° C.
(§8) After incubation, the growth is determined on the basis of the turbidity of the test batches (optical density) at 620 nm in a microplate reader.
(§9) The minimum inhibitory concentration (MIC value) is the concentration of substance at which there is found (compared to the growth of the control) an appreciable inhibition of growth (≦20% growth) of the test organisms.
(§10) One microtitre plate is used for each test organism and substance concentration.
(§11) All the substances are tested in duplicate.

[2] = tested on: Escherichia coli NCTC 8196; assay: Determination of the Minimum Inhibitory Concentration (MIC value) in microtitre plates, Escherichia coli; type: cell-based; conditions: for MIC: Escherichia coli, NCTC8196, 48 h, read-out: MIC [μg/ml] EC
Procedure: as §1
Casein-soybean flour-peptone broth for preparation of pre-cultures of test bacteria and yeast. […]
Escherichia coli NCTC 8196
as §2, §3, §4, §5, §6, §7, §8, §9, §10, §11

[3] = Staphylococcus hominis DSM 20328, CASO broth, 48 hours at 37° C., MIC = ≦20% growth (optical density at 620 nm)
[4] = Escherichia coli NCTC 8196, CASO broth, 48 hours at 37° C., MIC = ≦20% growth (optical density at 620 nm)

Question: What does the source list for `CCCOc1ccc(CN(C)C)cc1OC` [Compound of formula (68)]?
Answer: MIC [1, 3]: > 120 µg/mL; MIC [2, 4]: > 120 µg/mL

Question: Which MIC [1] does the source give for `CCCOc1ccc(CN2CCNCC2)cc1OC` [Compound of formula (69)] here?
Answer: > 120 µg/mL

Question: What about the MIC [2] of the same compound?
Answer: > 120 µg/mL

Question: How did the MIC [1, 3] turn out when `CCCOc1ccc(CN2CCCCC2)cc1OC` [Compound of formula (70)] was run?
Answer: > 120 µg/mL

Question: And the MIC [2, 4]?
Answer: > 120 µg/mL

Question: `CCCCCCCCCCCCOc1ccc(CN(C)CCc2ccccn2)cc1` [Compound of formula (71)] was tested. Which MIC [1, 3] did it give?
Answer: > 120 µg/mL

Question: What about the MIC [2, 4] of the same compound?
Answer: > 120 µg/mL

Question: With `CCCCCCCCCCCCOc1ccc(CN2CCOCC2)cc1` [Compound of formula (72)] as the compound, how does the MIC [1, 3] read?
Answer: > 120 µg/mL

Question: What about the MIC [2, 4] of the same compound?
Answer: > 120 µg/mL

Question: For `CCCCCCCCCCCCOc1ccc(CN(C)CCCC)cc1` [Compound of formula (73)], which MIC [1, 3] is on record?
Answer: 120 µg/mL

Question: What about the MIC [2, 4] of the same compound?
Answer: > 120 µg/mL

Question: Which results are given for `CCCCCCCCCCCCOc1ccc(CN2CCCCCC2)cc1` [Compound of formula (74)]?
Answer: MIC [1, 3]: 3.75 µg/mL; MIC [2, 4]: > 120 µg/mL

Question: With `CCCCCCCCCCCCOc1ccc(CN(C(C)C)C(C)C)cc1` [Compound of formula (75)] as the compound, how does the MIC [1, 3] read?
Answer: > 120 µg/mL

Question: What about the MIC [2, 4] of the same compound?
Answer: > 120 µg/mL

Question: `CCCCCCCCCCCCOc1ccc(CN2CCN(C)CC2)cc1` [Compound of formula (76)] was tested. Which MIC [1, 3] did it give?
Answer: 7.5 µg/mL

Question: What about the MIC [2, 4] of the same compound?
Answer: > 120 µg/mL

Question: Which MIC [1, 3] does the source give for `CCCCCCCCCCCCOc1ccc(CN(C)CC)cc1` [Compound of formula (77)] here?
Answer: 15 µg/mL

Question: What about the MIC [2, 4] of the same compound?
Answer: > 120 µg/mL

Question: What does the source list for `CCCCCCCCCCCCOc1ccc(CN2CCN(C(C)=O)CC2)cc1` [Compound of formula (78)]?
Answer: MIC [1, 3]: > 120 µg/mL; MIC [2, 4]: > 120 µg/mL

Question: For `CCCCCCCCCCCCOc1ccc(CN(C)Cc2ccccc2)cc1` [Compound of formula (79)], which MIC [1, 3] is on record?
Answer: 60 µg/mL

Question: And the MIC [2, 4]?
Answer: > 120 µg/mL

Question: Which results are given for `CCCCCCCCCCCCOc1ccc(CN(C)CCCCCC)cc1` [Compound of formula (80)]?
Answer: MIC [1, 3]: 60 µg/mL; MIC [2, 4]: > 120 µg/mL

Question: `CCCCCCCCCCCCOc1ccc(CN2CCN(CC)CC2)cc1` [Compound of formula (81)] was tested. Which MIC [1, 3] did it give?
Answer: 15 µg/mL

Question: What about the MIC [2, 4] of the same compound?
Answer: > 120 µg/mL

Question: With `CCCCCCCCCCCCOc1ccc(CN2CCCC2)cc1` [Compound of formula (82)] as the compound, how does the “MIC [μg/ml] SH” value ([1]; Staphylococcus hominis DSM 20328, CASO broth, 48 hours at 37° C., MIC = ≦20% growth (optical density at 620 nm), listed as (82)) read?
Answer: 7.5 µg/mL

Question: And the MIC [2, 4]?
Answer: 60 µg/mL

Question: For `CCCCCCCCCCCCOc1ccc(CN2CCCC2)cc1` [Compound of formula (83)], which “MIC [μg/ml] SH” value ([1]; Staphylococcus hominis DSM 20328, CASO broth, 48 hours at 37° C., MIC = ≦20% growth (optical density at 620 nm), listed as (83)) is on record?
Answer: >120 µg/mL

Question: And the “MIC [μg/ml] EC” value [2, 4]?
Answer: >120 µg/mL

Question: What does the source list for `CCCCCCCCCCCCOc1ccc(CN(C)C)cc1` [Compound of formula (84)]?
Answer: MIC [1, 3]: 7.5 µg/mL; MIC [2, 4]: 60 µg/mL

Question: What does the source list for `CCCCCCCCCCCCOc1ccc(CN2CCNCC2)cc1` [Compound of formula (85)]?
Answer: MIC [1, 3]: > 120 µg/mL; MIC [2, 4]: > 120 µg/mL

Question: Which results are given for `CCCCCCCCCCCCOc1ccc(CN2CCCCC2)cc1` [Compound of formula (86)]?
Answer: MIC [1, 3]: 7.5 µg/mL; MIC [2, 4]: > 120 µg/mL

Question: Which MIC [1, 3] does the source give for `CCCCCCOc1ccc(CN(C)CCc2ccccn2)cc1OCCCCCC` [Compound of formula (87)] here?
Answer: 30 µg/mL

Question: What about the MIC [2, 4] of the same compound?
Answer: > 120 µg/mL

Question: With `CCCCCCOc1ccc(CN2CCOCC2)cc1OCCCCCC` [Compound of formula (88)] as the compound, how does the MIC [1, 3] read?
Answer: > 120 µg/mL

Question: And the MIC [2, 4]?
Answer: > 120 µg/mL

Question: `CCCCCCOc1ccc(CN(C)CCCC)cc1OCCCCCC` [Compound of formula (89)] was tested. Which MIC [1, 3] did it give?
Answer: 60 µg/mL

Question: And the MIC [2, 4]?
Answer: > 120 µg/mL

Question: For `CCCCCCOc1ccc(CN2CCCCCC2)cc1OCCCCCC` [Compound of formula (90)], which MIC [1, 3] is on record?
Answer: 7.5 µg/mL

Question: What about the MIC [2, 4] of the same compound?
Answer: > 120 µg/mL

Question: What does the source list for `CCCCCCOc1ccc(CN(C(C)C)C(C)C)cc1OCCCCCC` [Compound of formula (91)]?
Answer: MIC [1, 3]: > 120 µg/mL; MIC [2, 4]: > 120 µg/mL

Question: Which MIC [1, 3] does the source give for `CCCCCCOc1ccc(CN2CCN(C)CC2)cc1OCCCCCC` [Compound of formula (92)] here?
Answer: 15 µg/mL

Question: And the MIC [2, 4]?
Answer: 60 µg/mL

Question: With `CCCCCCOc1ccc(CN(CC)CC)cc1OCCCCCC` [Compound of formula (93)] as the compound, how does the MIC [1, 3] read?
Answer: 7.5 µg/mL

Question: And the MIC [2, 4]?
Answer: 120 µg/mL

Question: Which MIC [1, 3] does the source give for `CCCCCCOc1ccc(CN2CCN(C(C)=O)CC2)cc1OCCCCCC` [Compound of formula (94)] here?
Answer: > 120 µg/mL

Question: And the MIC [2, 4]?
Answer: > 120 µg/mL

Question: How did the MIC [1, 3] turn out when `CCCCCCOc1ccc(CN(C)Cc2ccccc2)cc1OCCCCCC` [Compound of formula (95)] was run?
Answer: > 120 µg/mL

Question: And the MIC [2, 4]?
Answer: > 120 µg/mL

Question: `CCCCCCOc1ccc(CN(C)CCCCCC)cc1OCCCCCC` [Compound of formula (96)] was tested. Which MIC [1, 3] did it give?
Answer: 120 µg/mL

Question: What about the MIC [2, 4] of the same compound?
Answer: > 120 µg/mL

Question: Which MIC [1, 3] does the source give for `CCCCCCOc1ccc(CN2CCN(CC)CC2)cc1OCCCCCC` [Compound of formula (97)] here?
Answer: 30 µg/mL

Question: What about the MIC [2, 4] of the same compound?
Answer: 120 µg/mL

Question: What does the source list for `CCCCCCOc1ccc(CN2CCCC2)cc1OCCCCCC` [Compound of formula (98)]?
Answer: MIC [1, 3]: 3.75 µg/mL; MIC [2, 4]: 7.5 µg/mL

Question: For `CCCCCCCCCCCCN(C)Cc1ccc(OCCCCCC)c(OCCCCCC)c1` [Compound of formula (99)], which MIC [1, 3] is on record?
Answer: > 120 µg/mL

Question: What about the MIC [2, 4] of the same compound?
Answer: > 120 µg/mL

Question: With `CCCCCCOc1ccc(CN(C)C)cc1OCCCCCC` [Compound of formula (100)] as the compound, how does the MIC [1, 3] read?
Answer: 7.5 µg/mL

Question: And the MIC [2, 4]?
Answer: 7.5 µg/mL

Question: With `CCCCCCOc1ccc(CN2CCNCC2)cc1OCCCCCC` [Compound of formula (101)] as the compound, how does the MIC [1, 3] read?
Answer: > 120 µg/mL

Question: And the MIC [2, 4]?
Answer: > 120 µg/mL

Question: What does the source list for `CCCCCCOc1ccc(CN2CCCCC2)cc1OCCCCCC` [Compound of formula (102)]?
Answer: MIC [1, 3]: 7.5 µg/mL; MIC [2, 4]: > 120 µg/mL
